{"source": "PubChem BioAssay (NCI)", "experiment_in_all_cases": "NCI tumour cell line growth inhibition, 48 h", "key": {"[1]": {"test_system": "SN12C renal"}, "[2]": {"test_system": "TK-10 renal"}, "[3]": {"test_system": "RPMI-8226 leukemia"}, "[4]": {"test_system": "HS 578T breast"}, "[5]": {"test_system": "HT29 colon"}, "[6]": {"test_system": "A498 renal"}, "[7]": {"test_system": "PC-3 prostate"}, "[8]": {"test_system": "RXF 393 renal"}, "[9]": {"test_system": "MDA-MB-231 breast"}, "[10]": {"test_system": "IGROV1 ovarian"}}, "note": "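Following 48 hours of exposure in 96-well plates, responses at five concentrations were used to interpolate endpoints linearly. GI50 = concentration required for 50% inhibition of growth. At the TGI there is no net growth.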", "data": [{"smiles": "Cc1[nH]nc(-c2ccon2)c1N=O", "values": [{"measurement": "TGI", "setting": "[1]", "value": 42, "unit": "µM"}, {"measurement": "TGI", "setting": "[2]", "value": 32.9, "unit": "µM"}, {"measurement": "TGI", "setting": "[3]", "value": 17.1, "unit": "µM"}, {"measurement": "TGI", "setting": "[4]", "value": 80.7, "unit": "µM"}, {"measurement": "TGI", "setting": "[5]", "value": 39.6, "unit": "µM"}, {"measurement": "TGI", "setting": "[6]", "value": "> 100", "unit": "µM"}, {"measurement": "TGI", "setting": "[7]", "value": 70.3, "unit": "µM"}, {"measurement": "TGI", "setting": "[8]", "value": 97.7, "unit": "µM"}, {"measurement": "TGI", "setting": "[9]", "value": 32.4, "unit": "µM"}, {"measurement": "TGI", "setting": "[10]", "value": 70.1, "unit": "µM"}]}, {"smiles": "Cn1ccnc1Oc1ccc(Cl)cc1", "values": [{"measurement": "TGI", "setting": "[1]", "value": 26.4, "unit": "µM"}, {"measurement": "TGI", "setting": "[2]", "value": 32.6, "unit": "µM"}, {"measurement": "TGI", "setting": "[3]", "value": 2.85, "unit": "µM"}, {"measurement": "TGI", "setting": "[4]", "value": 66.1, "unit": "µM"}, {"measurement": "TGI", "setting": "[5]", "value": 26.6, "unit": "µM"}, {"measurement": "TGI", "setting": "[6]", "value": 46.4, "unit": "µM"}, {"measurement": "TGI", "setting": "[7]", "value": 34.2, "unit": "µM"}, {"measurement": "TGI", "setting": "[8]", "value": 37.1, "unit": "µM"}, {"measurement": "TGI", "setting": "[9]", "value": 37.4, "unit": "µM"}]}, {"smiles": "O=C1c2c(Br)sc(Br)c2[C@@H](NC(=O)C(F)(F)F)C1Br", "note": "(stereo not given in full)", "values": [{"measurement": "TGI", "setting": "[1]", "value": 8.33, "unit": "µM"}, {"measurement": "TGI", "setting": "[2]", "value": 30.5, "unit": "µM"}, {"measurement": "TGI", "setting": "[3]", "value": 5.92, "unit": "µM"}, {"measurement": "TGI", "setting": "[4]", "value": "> 63.9", "unit": "µM"}, {"measurement": "TGI", "setting": "[5]", "value": 5.77, "unit": "µM"}, {"measurement": "TGI", "setting": "[6]", "value": 28.7, "unit": "µM"}, {"measurement": "TGI", "setting": "[7]", "value": 15.1, "unit": "µM"}, {"measurement": "TGI", "setting": "[8]", "value": 5.22, "unit": "µM"}, {"measurement": "TGI", "setting": "[9]", "value": 6.06, "unit": "µM"}, {"measurement": "TGI", "setting": "[10]", "value": 10.5, "unit": "µM"}]}, {"smiles": "COc1ccc2c(c1)C(=O)c1c-2c(OCCN(C)C)nc2ccccc12", "values": [{"measurement": "GI50", "setting": "[1]", "value": 1.69, "unit": "µM"}, {"measurement": "TGI", "setting": "[1]", "value": 10.6, "unit": "µM"}, {"measurement": "GI50", "setting": "[2]", "value": 7.56, "unit": "µM"}, {"measurement": "TGI", "setting": "[2]", "value": 20.8, "unit": "µM"}, {"measurement": "GI50", "setting": "[3]", "value": 2.85, "unit": "µM"}, {"measurement": "TGI", "setting": "[3]", "value": 13.9, "unit": "µM"}, {"measurement": "GI50", "setting": "[4]", "value": 3.57, "unit": "µM"}, {"measurement": "TGI", "setting": "[4]", "value": 12.2, "unit": "µM"}, {"measurement": "GI50", "setting": "[5]", "value": 1.46, "unit": "µM"}, {"measurement": "TGI", "setting": "[5]", "value": 5.01, "unit": "µM"}, {"measurement": "GI50", "setting": "[6]", "value": 1.87, "unit": "µM"}, {"measurement": "TGI", "setting": "[6]", "value": 10.7, "unit": "µM"}, {"measurement": "GI50", "setting": "[7]", "value": 4.99, "unit": "µM"}, {"measurement": "TGI", "setting": "[7]", "value": 21.4, "unit": "µM"}, {"measurement": "GI50", "setting": "[8]", "value": 3.79, "unit": "µM"}, {"measurement": "TGI", "setting": "[8]", "value": 15.7, "unit": "µM"}, {"measurement": "GI50", "setting": "[9]", "value": 4.02, "unit": "µM"}, {"measurement": "TGI", "setting": "[9]", "value": 20.8, "unit": "µM"}, {"measurement": "GI50", "setting": "[10]", "value": 2970, "unit": "nM"}, {"measurement": "TGI", "setting": "[10]", "value": 14.8, "unit": "µM"}]}, {"smiles": "Oc1c(-c2cc(C(F)(F)F)[nH]n2)cc(Cl)c(OCc2ccc(Cl)cc2)c1-c1ccc(Cl)c(C(F)(F)F)c1", "values": [{"measurement": "GI50", "setting": "[1]", "value": 0.153, "unit": "µM"}, {"measurement": "TGI", "setting": "[1]", "value": 3.31, "unit": "µM"}, {"measurement": "GI50", "setting": "[2]", "value": 0.56, "unit": "µM"}, {"measurement": "TGI", "setting": "[2]", "value": 5.28, "unit": "µM"}, {"measurement": "GI50", "setting": "[3]", "value": 0.204, "unit": "µM"}, {"measurement": "TGI", "setting": "[3]", "value": 1.19, "unit": "µM"}, {"measurement": "GI50", "setting": "[4]", "value": 0.344, "unit": "µM"}, {"measurement": "TGI", "setting": "[4]", "value": 2.85, "unit": "µM"}, {"measurement": "GI50", "setting": "[5]", "value": 1.4, "unit": "µM"}, {"measurement": "TGI", "setting": "[5]", "value": 5.83, "unit": "µM"}, {"measurement": "GI50", "setting": "[6]", "value": 0.0996, "unit": "µM"}, {"measurement": "TGI", "setting": "[6]", "value": 0.484, "unit": "µM"}, {"measurement": "GI50", "setting": "[7]", "value": 0.171, "unit": "µM"}, {"measurement": "TGI", "setting": "[7]", "value": 5.09, "unit": "µM"}, {"measurement": "GI50", "setting": "[8]", "value": 0.226, "unit": "µM"}, {"measurement": "TGI", "setting": "[8]", "value": 1.67, "unit": "µM"}, {"measurement": "GI50", "setting": "[9]", "value": 0.46, "unit": "µM"}, {"measurement": "TGI", "setting": "[9]", "value": 3.07, "unit": "µM"}, {"measurement": "GI50", "setting": "[10]", "value": 965, "unit": "nM"}, {"measurement": "TGI", "setting": "[10]", "value": 5.93, "unit": "µM"}]}, {"smiles": "Cc1ccc(C2C3Cc4ccccc4C3=NN2c2ccc(S(=O)(=O)/N=c3\\scc(-c4ccccc4)n3-c3ccccc3)cc2)cc1", "note": "(stereo not given)", "values": [{"measurement": "GI50", "setting": "[1]", "value": 16.8, "unit": "µM"}, {"measurement": "TGI", "setting": "[1]", "value": 31.8, "unit": "µM"}, {"measurement": "GI50", "setting": "[2]", "value": 19.1, "unit": "µM"}, {"measurement": "TGI", "setting": "[2]", "value": 63.6, "unit": "µM"}, {"measurement": "GI50", "setting": "[3]", "value": 13.4, "unit": "µM"}, {"measurement": "TGI", "setting": "[3]", "value": 35.6, "unit": "µM"}, {"measurement": "GI50", "setting": "[4]", "value": 17.2, "unit": "µM"}, {"measurement": "TGI", "setting": "[4]", "value": 44.8, "unit": "µM"}, {"measurement": "GI50", "setting": "[6]", "value": 14.9, "unit": "µM"}, {"measurement": "TGI", "setting": "[6]", "value": 36.1, "unit": "µM"}, {"measurement": "GI50", "setting": "[7]", "value": 21.3, "unit": "µM"}, {"measurement": "TGI", "setting": "[7]", "value": 53.2, "unit": "µM"}, {"measurement": "GI50", "setting": "[8]", "value": 24.8, "unit": "µM"}, {"measurement": "TGI", "setting": "[8]", "value": 64.6, "unit": "µM"}, {"measurement": "GI50", "setting": "[9]", "value": 14.9, "unit": "µM"}, {"measurement": "TGI", "setting": "[9]", "value": 32.7, "unit": "µM"}, {"measurement": "GI50", "setting": "[10]", "value": 26500, "unit": "nM"}, {"measurement": "TGI", "setting": "[10]", "value": "> 100", "unit": "µM"}]}, {"smiles": "O=C(NNS(=O)(=O)c1ccc(Cl)cc1Cl)c1cccnc1Nc1ccc(Cl)cc1", "values": [{"measurement": "GI50", "setting": "[1]", "value": 31.4, "unit": "µM"}, {"measurement": "TGI", "setting": "[1]", "value": "> 100", "unit": "µM"}, {"measurement": "GI50", "setting": "[2]", "value": 28.9, "unit": "µM"}, {"measurement": "TGI", "setting": "[2]", "value": 84.3, "unit": "µM"}, {"measurement": "GI50", "setting": "[3]", "value": 17.7, "unit": "µM"}, {"measurement": "TGI", "setting": "[3]", "value": 53.2, "unit": "µM"}, {"measurement": "GI50", "setting": "[4]", "value": 17.8, "unit": "µM"}, {"measurement": "TGI", "setting": "[4]", "value": 41.8, "unit": "µM"}, {"measurement": "GI50", "setting": "[5]", "value": 22.8, "unit": "µM"}, {"measurement": "TGI", "setting": "[5]", "value": 54.2, "unit": "µM"}, {"measurement": "GI50", "setting": "[6]", "value": 25, "unit": "µM"}, {"measurement": "TGI", "setting": "[6]", "value": 47.9, "unit": "µM"}, {"measurement": "GI50", "setting": "[7]", "value": 23.4, "unit": "µM"}, {"measurement": "TGI", "setting": "[7]", "value": 80.4, "unit": "µM"}, {"measurement": "GI50", "setting": "[8]", "value": 16.9, "unit": "µM"}, {"measurement": "TGI", "setting": "[8]", "value": 43.8, "unit": "µM"}, {"measurement": "GI50", "setting": "[9]", "value": 19, "unit": "µM"}, {"measurement": "TGI", "setting": "[9]", "value": 50.7, "unit": "µM"}]}, {"smiles": "COc1cc2cc(Oc3ccc(NC(=O)c4ccc(Cl)c(Cl)c4)cc3)c(C)nc2cc1OC", "values": [{"measurement": "GI50", "setting": "[1]", "value": "> 100", "unit": "µM"}, {"measurement": "TGI", "setting": "[1]", "value": "> 100", "unit": "µM"}, {"measurement": "GI50", "setting": "[2]", "value": 9.81, "unit": "µM"}, {"measurement": "TGI", "setting": "[2]", "value": "> 100", "unit": "µM"}, {"measurement": "GI50", "setting": "[3]", "value": 3.7, "unit": "µM"}, {"measurement": "TGI", "setting": "[3]", "value": "> 100", "unit": "µM"}, {"measurement": "GI50", "setting": "[4]", "value": 7.24, "unit": "µM"}, {"measurement": "TGI", "setting": "[4]", "value": "> 100", "unit": "µM"}, {"measurement": "GI50", "setting": "[5]", "value": 7.89, "unit": "µM"}, {"measurement": "TGI", "setting": "[5]", "value": "> 100", "unit": "µM"}, {"measurement": "GI50", "setting": "[6]", "value": 20.6, "unit": "µM"}, {"measurement": "TGI", "setting": "[6]", "value": "> 100", "unit": "µM"}, {"measurement": "GI50", "setting": "[7]", "value": 4.77, "unit": "µM"}, {"measurement": "TGI", "setting": "[7]", "value": "> 100", "unit": "µM"}, {"measurement": "GI50", "setting": "[8]", "value": 9.66, "unit": "µM"}, {"measurement": "TGI", "setting": "[8]", "value": "> 100", "unit": "µM"}, {"measurement": "GI50", "setting": "[9]", "value": 9.89, "unit": "µM"}, {"measurement": "TGI", "setting": "[9]", "value": "> 100", "unit": "µM"}, {"measurement": "GI50", "setting": "[10]", "value": "> 100000", "unit": "nM"}, {"measurement": "TGI", "setting": "[10]", "value": "> 100", "unit": "µM"}]}]}
